Several values for one entry are separate records, joined by “and”; a condition that tells them apart may be missing. Equal entries are not always repeated.
Experiments:
[1] = tested on: human adenocarcinoma cell line CaCo-2; assay: Cell Based Screen for Inhibitors of Raf Kinase, CaCo-2 cells; conditions: CaCo-2, four days, SRB
Raf-1 (c-Raf) = molecular target: T1, Raf-1 (c-Raf) (Homo sapiens, UniProt P04049); assay: Raf1 Kinase Cascade Assay; assay type: biochemical
T1 construct: Sf9 insect cell lysate containing full length 6his-tagged recombinant human c-Raf; 6his; host or cells: Sf9 insect cells (c-Raf, used as lysate); E. coli (GST-MEK1, GST-MAPK)
Procedure: (Specific Activity: -200U/ml). Human Non-active Mek-1-GST and human GST-MAP kinase (recombinant proteins produced in E. coli).
• Assay Dilution Buffer (ADB); 20mM MOPS, pH 7.2, 25mM β-glycerol phosphate, 5mM EGTA, 1mM sodium orthovanadate, 1mM dithiothreitol. • Magnesium/ATP Cocktail: 500µM cold ATP and 75 mM magnesium chloride in ADB. • Active Kinase: Human Active c-Raf: Use at 0.4U per assay point. • Non-active GST-MEK1: Use at 0.1 µg per assay point. • Non-active GST-p42 MAP Kinase: Use at 1.0 µg per assay point.
• TBST - Tris (50 mM, pH 7.5), NaCl (150 mM), Tween-20 (0.05 %) • Superblock (Pierce) • Anti-GST Ab (Pharmacia) • Anti-Phospho MAPK (Sigma) • Anti-Mouse Ab / Europium conjugate (Wallac)
IC50 determinations - done on compounds from single point assays with >80% inhibition. Typically Raf-1 assay is run at compound concentrations from 10 µM to 30 nM in half log dilutions. (% inhibition is determined for each compound concentration).

[2] = tested on: Human adenocarcinoma cell line LoVo; assay: Cell Based Screen for Inhibitors of Raf Kinase, LoVo cells; conditions: four days, SRB

Row | IC50 [1] [nM] | IC50 (Raf-1 (c-Raf)) | IC50 [2] [nM] | IC50 ([1]; Homo sapiens, Caco-2, 96 h) [nM] | IC50 ([2]; Homo sapiens, 96 h) [nM] | Molecule
1 | > 1000 | 16 nM | 33 | – | – | Cn1ccnc1Sc1ccc(Nc2c(C#N)cnc3cc(-c4ccc(CN5CCNCC5)cc4)ccc23)cc1Cl [Example 97, 4-({3-Chloro-4-[(1-methyl-1H-imidazol-2-yl)sulfanyl]phenyl}amino)-7-[4-(1-piperazinylmethyl)phenyl]-3-quinolinecarbonitrile]
2 | > 1000 | 2.5 nM and 1.8 nM | 11 | – | – | 4-{3-chloro-4-[(1-methyl-1H-imidazol-2-yl)sulfanyl]anilino}-7-[4-(1-piperidinylmethyl)phenyl]-3-quinolinecarbonitrile [Example 136]
3 | > 10000 | 1 nM | 30 | – | – | Cn1ccnc1Sc1ccc(Nc2c(C#N)cnc3cc(-c4cnc(N5CCOCC5)nc4)ccc23)cc1Cl [Example 191, 4-{3-chloro-4-[(1-methyl-1H-imidazol-2-yl)sufanyl]anilino}-7-[2-(4-morpholinyl)-5-pyrimidinyl]-3-quinolinecarbonitrile]
4 | – | 20 nM | – | – | – | Cn1ccnc1Sc1ccc(Nc2c(C#N)cnc3cc(-c4ccc(CN5CCCCC5)o4)ccc23)cc1Cl [Example 155, 4-{3-chloro-4-[(1-methyl-1H-imidazol-2-yl)sulfanyl]anilino}-7-[5-(1-piperidinylmethyl)-2-furyl]-3-quinolinecarbonitrile]
5 | – | 50 nM | – | – | – | N#Cc1cnc2cc(-c3csc(CN4CCCCC4)c3)ccc2c1Nc1ccc(Sc2ccccc2)c(Cl)c1 [Example 462, 4-{[3-chloro-4-(phenylsulfanyl)phenyl]amino}-7-[5-(1-piperidinylmethyl)-3-thienyl]-3-quinolinecarbonitrile]
6 | 930 | 3.7 nM | 5.6 | – | – | 4-({3-chloro-4-[(1-methyl-1H-imidazol-2-yl)sulfanyl]phenyl}amino) -7-[5-(1-pyridinyl]-3-quinolinecarbonitrile [Example 180]
7 | 810 | 5.6 nM | 6.2 | – | – | Cn1ccnc1Sc1ccc(Nc2c(C#N)cnc3cc(-c4ccc(CN5CCOCC5)cc4)ccc23)cc1Cl [Example 138]
8 | – | – | – | > 1000 | 10 | Cn1ccnc1Sc1ccc(Nc2c(C#N)cnc3cc(-c4ccc(N5CCSCC5)nc4)ccc23)cc1Cl [Example 110, 4-({3-Chloro-4-[(1-methyl-1H-imidazol-2-yl)sulfanyl]phenyl}amino)-7-[6-(4-thiomorpholinyl)-3-pyridinyl]-3-quinolinecarbonitrile]
9 | – | – | – | 590 | 3.2 | Cn1ccnc1Sc1ccc(Nc2c(C#N)cnc3cc(-c4ccc(N5CCC(N6CCCC6)CC5)nc4)ccc23)cc1Cl [Example 210, 4-({3-chloro-4-[(1-methyl-1H-imidazol-2-yl)sulfanyl]phenyl}amino)-7-{6-[4-(1-pyrrolidinyl)-1-piperidinyl]-3-pyridinyl}-3-quinolinecarbonitrile]
10 | > 1000 | 6 nM | 5.3 | – | – | 4-({3-chloro-4-[(1-methyl-1H-imidazol-2-yl)sulfanyl]phenyl}amino)-7-[6-(1-piperidinyl)-3-pyridinyl]-3-quinolinecarbonitrile [Example 211]
11 | 5500 | – | 9 | > 10000 | – | Cn1ccnc1Sc1ccc(Nc2c(C#N)cnc3cc(-c4ccc(CN5CCOCC5)cn4)ccc23)cc1Cl [Example 187, 4-{3-chloro-4-[(1-methyl-1H-imidazol-2-yl)sulfanyl]anilino}-7-[5-(4-morpholinylmethyl)-2-pyridinyl]-3-quinolinecarbonitrile]
12 | 1000 | 9 nM and 12 nM | 5.6 | – | – | 4-{3-chloro-4-[(1-methyl-1H-imidazol-2-yl)sulfanyl]anilino}-7-{5-[(4-ethyl-1-piperazinyl)methyl]-2-furyl}-3-quinolinecarbonitrile [Example 156]
13 | 5000 | – | – | > 10000 | 50 | Cn1ccnc1Sc1ccc(Nc2c(C#N)cnc3cc(-c4ccc(C=O)cn4)ccc23)cc1Cl [Example 170, 4-{3-chloro-4-[(1-methyl-1H-imidazol-2-yl)sulfanyl]anilino}-7-(5-formyl-2-pyridinyl)-3-quinolinecarbonitrile]
14 | – | – | – | > 10000 | > 10000 | N#Cc1cnc2cc(-c3csc(CN4CCOCC4)c3)ccc2c1Nc1ccc(Cc2ccccc2)cc1 [Example 8, 4-(4-Benzylanilino)-7-[5-(4-morpholinylmethyl)-3-thienyl]-3-quinolinecarbonitrile]
15 | – | – | – | > 1000 | 25 | Cn1ccnc1Sc1ccc(Nc2c(C#N)cnc3cc(-c4ccc(CN5CCC(N6CCCC6)CC5)cn4)ccc23)cc1Cl [Example 173, 4-{3-chloro-4-[(1-methyl-1H-imidazol-2-yl)sulfanyl]anilino}-7-(5-{[4-(1-pyrrolidinyl)-1-piperidinyl]methyl}-2-pyridinyl)-3-quinolinecarbonitrile]
16 | – | – | – | 780 | 4 | COCCN(C)c1ccc(-c2ccc3c(Nc4ccc(Sc5nccn5C)c(Cl)c4)c(C#N)cnc3c2)cn1 [Example 212, 4-({3-chloro-4-[(1-methyl-1H-imidazol-2-yl)sulfanyl]phenyl}amino)-7-{6-[(2-methoxyethyl)(methyl)amino]-3-pyridinyl}-3-quinolinecarbonitrile]
17 | – | – | – | 980 | 6.8 | Cn1ccnc1Sc1ccc(Nc2c(C#N)cnc3cc(-c4ccc(CN5CCOCC5)nc4)ccc23)cc1Cl [Example 109, 4-({3-Chloro-4-[(1-methyl-1H-imidazol-2-yl)sulfanyl]phenyl}amino)-7-[6-(4-morpholinylmethyl)-3-pyridinyl]-3-quinolinecarbonitrile]
18 | – | 6 nM | 6 | – | – | Cn1ccnc1Sc1ccc(Nc2c(C#N)cnc3cc(-c4csc(CN5CCOCC5)c4)ccc23)cc1Cl [Example 33, 4-{3-Chloro-4-[(1-methyl-1H-imidazol-2-yl)sulfanyl]anilino}-7-[5-(4-morpholinylmethyl)-3-thienyl]-3-quinolinecarbonitrite]
19 | – | – | – | > 1000 | 6.4 | CN(CCO)Cc1ccc(-c2ccc3c(Nc4ccc(Sc5nccn5C)c(Cl)c4)c(C#N)cnc3c2)nc1 [Example 106, 4-({3-Chloro-4-[(1-methyl-1H-imidazol-2-yl)sulfanyl]phenyl}amino)-7-(5-{[(2-hydroxyethyl)(methyl)amino]methyl}-2-pyridinyl)-3-quinolinecarbonitrile]
20 | – | – | – | > 1000 | 5.6 | Cn1ccnc1Sc1ccc(Nc2c(C#N)cnc3cc(-c4ccc(CN5CCN(CCO)CC5)s4)ccc23)cc1Cl [Example 161, 4-{3-chloro-4-[(1-methyl-1H-imidazol-2-yl)sulfanyl]anilino}-7-(5-{[4-(2-hydroxyethyl)-1-piperazinyl]methyl}-2-thienyl)-3-quinolinecarbonitrile]
